Measurements: patent US20060111289A1, “Compositions and methods of using Alpha-fetoprotein growth inhibitory peptides” (Serometrix, LLC,, priority 2004, published 2006)
Marks after values point to notes of the source that are not given here. Where a SMILES comes first, the peptide text is derived from it.

Experiments:
[1] = tested on: LNCaP human prostate tumor cells; assay: Whole-cell voltage clamp of LNCaP cells; assay type: cell-based; details: peptide 10 μM, voltage ramp −100-100 mV (400 ms duration)
Method: LNCaP human prostate tumor cells were cultured on 5×5 mm plastic coverslips and were transferred to a microperfusion chamber on the stage of an inverted microscope. Whole-cell voltage clamp was accomplished with an Axopatch 200B (Axon Instr. Co., Union City, Calif.) using ruptured patches. Borosilicate glass capillaries (1.2 mm OD, 0.68 ID, type EN-I, Garner Glass Co., Claremont, Calif.) were used to fabricate patch pipettes (3-8 MΩ in the bath solution) with a Brown-Flaming horizontal micropipette puller (P-87, Sutter Instruments, San Rafael, Calif.). Patch-pipette tips were heat-polished prior to use. A micromanipulator (Narishige) fixed to the microscope positioned the pipettes. Electrode capacitance and access resistance were compensated prior to measurements. All experiments will be performed at room temperature (20-22° C.). The standard extracellular salt solution for ion currents contained (in mM): 150 NaCl, 6 KCl, 1.5 CaCl2, 1 MgCl2, 10 HEPES, 10 glucose, and pH adjusted to 7.4 with 1 N NaOH. […] Electrophysiological recordings were procured and analyzed using PClamp8 software (Axon Instr. Co, Union City, Calif.) and the WinASCD software (Guy Droogmans, Katholieke Universiteit; Leuven, B E). All results were recorded on computer hard drive or on digital audio tape (DAT). […]

MCF-7 cells = assay: Estrogen-dependent MCF-7 foci formation assay; assay type: cell-based, human; set-up: % Inhibition Of Activity: MCF-7 foci formation: concentration or dose not given beside the values
Text: Mizejewski et al., “Alpha-fetoprotein derived synthetic peptides: assay of an estrogen-modifying regulatory segment” Mol Cell Endocrinol 118:15-23 (1996). The P149 peptide inhibited the formation of tumor cell foci formed as a result of the accumulation of breast cancer cells which clump together due to loss of contact inhibition.

[2] = tested on: immature mouse uterine growth; assay: E2-activated immature mouse uterine growth assay; assay type: in vivo; set-up: % Inhibition Of Activity: Uterine Growth: concentration or dose not given beside the values; details: for Inhibition in the mouse uterine assay: linear versus cyclic configuration
Method: FIG. 3 presents exemplary data showing the growth suppressive activities of the oligomeric forms of P149, cyclic versus linear, are depicted in various in vitro and in vivo models. Biological activity was determined by three growth-dependent bioassays, namely; • Panel-A and A1) an immature rodent uterine bioassay; • Panel-B and B 1) an in vitro MCF-7 foci assay; • Panel-C and C1) an in vitro tumor cell cytostatic assessment. […] See text for details. Scrambled peptide=P327. […]

[3] = tested on: MCF-7 and 6WI-1 tumor cells; assay: Tumor cell adhesion to ECM proteins in microtiter plates; assay type: cell-based, human, murine
Method: FIG. 8 presents exemplary data showing the inhibition of P149 in the cellular adhesion of cancer cells to extracellular matrix (ECM) proteins for both human MCF-7 breast cancer cells and for murine 6WI-1 ascites-adapted mammary tumor cells. The cellular adhesion assay was performed in 96-well microtiter plates (Nunc Company, Denmark, catalog #263339) and the wells were pre-coated with 100 microliters of each of the above-mentioned ECM proteins for 24 hours as previously determined. After adding tumor cells, the plates were then incubated at 37° C. for various times; while 6WI-1 cells usually required only 2-4 hours incubation for adhesion; MCF-7 cells required 24 hours for attachment following trypsinization. For both cell lines, the cell culture media contained 5% calf serum to ensure cell attachment. The plates were washed twice with Hank's Saline, fixed in 0.5 mL of 37% formaldehyde, stained with crystal violet and read at […] on a microplate reader. Inset: Using a CyQUANT® stain kit, (Hoechst Corp., Germany) the plates were first exposed to a freeze/thaw cycle at −70° C. for 24 hours and 37° C. for 10 minutes. CyQUANT® buffer solution (150 microliters) was added to each well, and the cell adhesion was measured by fluorescence spectroscopy and quantitated using an ImageQuant® plate scanner (Fluorimager 595, Molecular Dynamics, Sunnyvale, Calif.).
This attachment of GIP was a slightly weaker adhesion matrix than was gelatin, chondroitin sulfate, and poly-lysine which approximated 30-35%. Using P149, the optimal amount of peptide required to inhibit tumor cell adhesion was determined by absorbing soluble peptide (1.0 pg to 100 μg) to the walls of microtiter plates. A constant number of MCF-7 tumor cells (i.e., for example, 1×10^5) were then added to the microtiter well and adhesion quantitated by fluorescence. […] The quantitation of MCF-7 and 6WI-1 cell adhesion in the presence of peptide versus peptide-free media was then determined on ECM-coated microtiter plates using 3 μg GIP/well as a competitive inhibitor. The P149 peptide was added to the wells immediately after the cells were dispensed and then the mixture was incubated as described. The AFP peptide was capable of cell adhesion inhibition in most of the ECM proteins in both tumor cell lines. Inhibition of mouse and human tumor cell adhesion was somewhat equivalent using collagen IV, fibrinogen, fibronectin, and thrombospondin. […] Thus, the GIP was found capable of eliciting different attachment inhibitions dependent on the type of ECM protein coating the wall of the microtiter plate and also the tumor cell type involved.

Estrogen fetotoxicity = assay: Estrogen fetotoxicity; set-up: concentration or dose not given beside the values; details: in vivo

CC[C@H](C)[C@H](NC(=O)[C@@H]1CSSC[C@H](NC(=O)[C@H](C)NC(=O)[C@H](CC(C)C)NC(=O)[C@H](CC(C)C)NC(=O)[C@H](CCCCN)NC(=O)[C@H](CC(=O)O)NC(=O)[C@H](CCC(=O)O)NC(=O)[C@H](CO)NC(=O)[C@@H](N)CC(C)C)C(=O)NCC(=O)N[C@@H](CCC(=O)O)C(=O)NCC(=O)N[C@@H](C)C(=O)N[C@@H](C)C(=O)N[C@@H](CC(=O)O)C(=O)N[C@@H]([C@@H](C)CC)C(=O)N[C@@H]([C@@H](C)CC)C(=O)N[C@@H]([C@@H](C)CC)C(=O)NCC(=O)N[C@@H](Cc2c[nH]cn2)C(=O)N[C@@H](CC(C)C)C(=O)N1)C(=O)N[C@@H](CCCNC(=N)N)C(=O)N[C@@H](Cc1c[nH]cn1)C(=O)N[C@@H](CCC(=O)O)C(=O)N[C@@H](CCSC)C(=O)N[C@H](C(=O)N1CCC[C@H]1C(=O)N[C@H](C(=O)N[C@@H](CC(N)=O)C(=O)N1CCC[C@H]1C(=O)NCC(=O)N[C@H](C(=O)O)C(C)C)C(C)C)[C@@H](C)O [Cyclic GIP] (HELM PEPTIDE1{L.S.E.D.K.L.L.A.C.G.E.G.A.A.D.I.I.I.G.H.L.C.I.R.H.E.M.T.P.V.N.P.G.V}$PEPTIDE1,PEPTIDE1,9:R3-22:R3$$$V2.0; N-terminus and C-terminus assumed)
Slope conductance (membrane conduction) [1]: 0.78 0.15* nS/pF | Inhibition in the MCF-7 foci-assay (MCF-7 cells; linear versus cyclic configuration): 20-25% | Inhibition in the mouse uterine assay [2]: 20-25% | Inhibition in the mouse uterine assay ([2]; listed as cyclic peptide): only marginally inhibitory

KDFIHKQGVALQTMKQELINLVKELVKPQIEAVADFSGLL (listed as Homo sapiens) [P192, reference compound]
% Inhibition Of Activity: Cell Adhesion [3]: 0% | % Inhibition Of Activity: MCF-7 foci formation (MCF-7 cells): 0% | % Inhibition Of Activity: Uterine Growth ([2]; mouse, in vivo): 0% | % Inhibition Of Activity: Estrogen Fetotoxicty (Estrogen fetotoxicity): 0%
